Drawing on the supplement of paper PMC12137928, this text covers IC50 cell viability for 25 molecules.

SMILES strings stand for the structures. Structures can show the parent of a compound that is named as a salt.

The test system of the assay is HCT116. The note with it: 72 h. In a few lines: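 Luminescence was read with CellTiter-Glo in HCT116 cells seeded at 250 per well in 1536-well plates. Signals were scaled between vehicle at 0% and positive control at -100%, then pattern-corrected. IC50 and maximal efficacy were obtained by fitting a four-parameter Hill equation.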

Turning to `C[N+]1(C)[C@@H]2CC[C@H]1C[C@@H](OC(=O)C(CO)c1ccccc1)C2` (stereo not given in full) [Methylatropine nitrate], the IC50 cell viability was greater than 45.8 µM (ICRF193 0 nM) and greater than 45.8 µM (ICRF193 200 nM).

In the case of `CC(C)(CO)[C@@H](O)C(=O)NCCCO` [Dexpanthenol], the IC50 cell viability (ICRF193 0 nM) was greater than 45.8 µM and the IC50 cell viability (ICRF193 200 nM) is greater than 45.8 µM.

With `CC1=C(/C=C/C(C)=C/C=C/C(C)=C/C=C/C=C(C)/C=C/C=C(C)/C=C/C2=C(C)CCCC2(C)C)C(C)(C)CCC1` [beta-Carotene], the IC50 cell viability by setting is: (ICRF193 0 nM) greater than 45.8 µM; (ICRF193 200 nM) greater than 45.8 µM.

As for `CC(C)(O)c1ccccc1CC[C@@H](SCC1(CC(=O)O)CC1)c1cccc(/C=C/c2ccc3ccc(Cl)cc3n2)c1` [Montelukast sodium], the IC50 cell viability was greater than 45.8 µM (ICRF193 0 nM) and greater than 45.8 µM (ICRF193 200 nM).

In the case of `CC(CCc1ccccc1)NCC(O)c1ccc(O)c(C(N)=O)c1` (stereo not given) [Labetalol HCl], the IC50 cell viability by setting is: (ICRF193 0 nM) greater than 45.8 µM; (ICRF193 200 nM) greater than 45.8 µM.

Take `C[C@]12CCC3=C4CCC(=O)C=C4CC[C@H]3[C@@H]1CC[C@@]2(O)CC#N` [Dienogest]: the IC50 cell viability is, setting by setting: (ICRF193 0 nM) greater than 45.8 µM; (ICRF193 200 nM) greater than 45.8 µM.

Consider `CC[N+](CC)(CC(=O)Nc1c(C)cccc1C)Cc1ccccc1` [Denatonium benzoate], for which the IC50 cell viability is, setting by setting: (ICRF193 0 nM) greater than 45.8 µM; (ICRF193 200 nM) greater than 45.8 µM.

As for `Cc1cccc(C)c1NC(=O)C(C)N` (stereo not given) [Tocainide hydrochloride], the IC50 cell viability reads like this: (ICRF193 0 nM) greater than 45.8 µM; (ICRF193 200 nM) greater than 45.8 µM.

Consider `FC(F)(F)C(F)(F)C(F)(F)C(F)(F)C(F)(F)C(F)(F)F` [Perflexane], for which the IC50 cell viability is greater than 45.8 µM (ICRF193 0 nM) and greater than 45.8 µM (ICRF193 200 nM).

Turning to `NC(=O)OCCCc1ccccc1` [Phenprobamate], the IC50 cell viability reads like this: (ICRF193 0 nM) greater than 45.8 µM; (ICRF193 200 nM) greater than 45.8 µM.

For `CCC(=O)O[C@]1(C(=O)COC)[C@@H](C)C[C@H]2[C@@H]3CCC4=CC(=O)C=C[C@]4(C)[C@@]3(F)[C@@H](O)C[C@@]21C` [Amelometasone], the IC50 cell viability is greater than 45.8 µM (ICRF193 0 nM) and greater than 45.8 µM (ICRF193 200 nM).

As for `Cc1cc(C)cc(OCC2CNC(=O)O2)c1` (stereo not given) [Metaxalone], the IC50 cell viability (ICRF193 0 nM) was greater than 45.8 µM and the IC50 cell viability (ICRF193 200 nM) was greater than 45.8 µM.

As for `CNc1ncc(-c2ccc3c(=O)c(C(=O)O)cn(C4CC4)c3c2C)cc1C` [OZENOXACIN], the IC50 cell viability is, setting by setting: (ICRF193 0 nM) greater than 45.8 µM; (ICRF193 200 nM) greater than 45.8 µM.

As for `Oc1cccc2cccnc12` [8-Quinolinol Salicylic acid (1:1)], the IC50 cell viability was greater than 45.8 µM (ICRF193 0 nM) and greater than 45.8 µM (ICRF193 200 nM).

For `COc1ccnc(C[S+]([O-])c2nc3cc(OC(F)F)ccc3[nH]2)c1OC` (stereo not given) [Pantoprazole], the IC50 cell viability by setting is: (ICRF193 0 nM) greater than 45.8 µM; (ICRF193 200 nM) greater than 45.8 µM.

In the case of `O=C(O)/C=C\C(=O)O` [Maleic acid], the IC50 cell viability was greater than 45.8 µM (ICRF193 0 nM) and greater than 45.8 µM (ICRF193 200 nM).

`CC(C)C[C@H]1C(=O)N2CCC[C@H]2[C@]2(O)O[C@](NC(=O)[C@@H]3C[C@@H]4c5cccc6[nH]cc(c56)C[C@H]4N(C)C3)(C(C)C)C(=O)N12` [Dihydroergocriptine]: the IC50 cell viability runs as follows: (ICRF193 0 nM) greater than 45.8 µM; (ICRF193 200 nM) greater than 45.8 µM.

Regarding `O=C1CC[C@H](C(=O)N2CCCCC2)N1` [Fasoracetam], the IC50 cell viability is, setting by setting: (ICRF193 0 nM) greater than 45.8 µM; (ICRF193 200 nM) greater than 45.8 µM.

As for `C[N+](C)(C)CC(O)CC(=O)[O-]` (racemic) [DL-Carnitine HCl], the IC50 cell viability is, setting by setting: (ICRF193 0 nM) greater than 45.8 µM; (ICRF193 200 nM) greater than 45.8 µM.

Turning to `CC(C)(C)C(=O)OCC(=O)[C@H]1CC[C@H]2[C@@H]3CCC4=CC(=O)CC[C@]4(C)[C@H]3CC[C@]12C` [Desoxycorticosterone Pivalate], the IC50 cell viability runs as follows: (ICRF193 0 nM) greater than 45.8 µM; (ICRF193 200 nM) greater than 45.8 µM.

For the molecule `CCCCCCCCCC(=O)O[C@H]1CC[C@H]2[C@@H]3CCC4=CC(=O)CC[C@@H]4[C@H]3CC[C@]12C` [Nandrolone decanoate], the IC50 cell viability is greater than 45.8 µM (ICRF193 0 nM) and greater than 45.8 µM (ICRF193 200 nM).

In turn, `O=Cc1ccccc1C=O` [1,2-Benzenedicarboxaldehyde] gave an IC50 cell viability (ICRF193 0 nM) greater than 45.8 µM and an IC50 cell viability (ICRF193 200 nM) greater than 45.8 µM.

As for `C[C@@H](O)[C@H]1C(=O)N2C(C(=O)OCOC(=O)C(C)(C)C)=C(SC3CN(C4=NCCS4)C3)[C@H](C)[C@H]12` [Tebipenem pivoxil], the IC50 cell viability (ICRF193 0 nM) was greater than 45.8 µM and the IC50 cell viability (ICRF193 200 nM) is greater than 45.8 µM.

With `CC(=O)[C@H]1CC[C@H]2[C@@H]3C[C@H](C)C4=CC(=O)CC[C@]4(C)[C@H]3[C@@H](O)C[C@]12C` [Medrysone], the IC50 cell viability by setting is: (ICRF193 0 nM) greater than 45.8 µM; (ICRF193 200 nM) greater than 45.8 µM.

On to `C=CC[N+]1([C@H]2C[C@H]3[C@@H]4CC[C@H]5C[C@H](O)[C@@H](N6CCOCC6)C[C@]5(C)[C@H]4CC[C@]3(C)[C@H]2OC(C)=O)CCCC1` [Rocuronium bromide], for which the IC50 cell viability by setting is: (ICRF193 0 nM) greater than 45.8 µM; (ICRF193 200 nM) greater than 45.8 µM.
